Test results taken from patent US20090011447A1, “QUANTIFICATION OF VITELLOGENIN” (priority 2006, published 2009).
Values joined by “and” are separate entries in the source; they are usually repeats but may differ in a detail not shown here. Identical values can stand only once.

Legend:
Assay type in all cases: in vivo
plasma Vtg [1] = assay: Vtg induction with β-estradiol in Rainbow trout, plasma signature peptide quantified by HPLC-QqToF-MS/MS; settings: experimental (E) Rainbow trout, individual fish
Procedure: (§1) Thirteen juvenile Rainbow trout and ten mature Atlantic salmon were kept in two 60 gallon tanks with running fresh and sea water, respectively. A 12 hour light-darkness cycle was maintained during the experiment. After one month of acclimatization, experimental fish were injected intraperitoneally four times, at one week intervals, with a dose of 10 mg of β-estradiol per kilogram of body weight using a 10 mg/mL solution in oil:acetone (9:1). Control fish were injected with the oil:acetone solution only.
(§2) One week before the first injection and one week after the last injection, fish were anesthetized using tricaine methanesulfonate (TMS) and blood samples were collected from the caudal vein using heparinized syringes and transferred in 1 mL portions into plastic tubes kept in ice. Samples were centrifuged at 3000 rpm for 5 minutes at 0° C. Plasma was separated and kept frozen at −80° C. until further analysis.
(§3) Five μL of plasma were mixed with 100 μL of denaturing buffer (8M urea, 4 mM dithiothreitol) and heated at 65° C. Then, 300 μL of a 50 mM solution of NH4HCO3 were added, followed by 95 μL of a 20 μg/mL trypsin solution. Digestion was carried out at 38° C. for 24 hours. Aliquots of 100 μL of the digested samples were mixed with 380 μL of solvent B (H2O: acetonitrile: acetic acid 70:30:0.1) and spiked with 20 μL of 5 μg/mL labeled standard solution. Finally, the samples were passed through 0.45 μm filters (Millipore Billerica Mass., USA, Cat. No. SJHV004NS) prior to injection into the HPLC.
(§4) In the case of Rainbow trout and salmon, samples and standards were analyzed with a HPLC system (HP 1050 from Hewlett-Packard, Palo Alto Calif., USA) coupled on-line to a QqToF (QStar XL, Applied Biosystems, Foster City Calif., USA) tandem mass spectrometer equipped with an ESI ion source (TurbolonSpray). […]
(§5) For quantification purposes, the extracted ion chromatograms of these diagnostic product ions were generated using a 2 Da mass range window around the selected product ions and manually integrated. […]

Vtg = Vtg induction with β-estradiol in Atlantic cod, assessed by SDS-PAGE; settings: experimental Atlantic cod serum, Coomassie blue stained gel, vs control fish
Procedure: Twelve mature female Atlantic cod fish were kept in a 60 gallon tank with a running sea water supply and fed, ad libitum. A 12 hour light-darkness cycle was maintained during the experiment. After one month of acclimatization, experimental fish were injected intraperitoneally four times, at one week intervals, a dose of 10 mg of β-estradiol per kilogram of fish body weight using a 10 mg/ml solution in oil:acetone (9:1). Control fish were injected only with the oil:acetone solution. One week after the last injection, fish were anesthetized using tricaine methanesulfonate (TMS) and bled. Blood samples were collected from the caudal vein using heparinized syringes and transferred in 1 mL portions into plastic tubes kept in ice. Twenty microliters of a 4 TIU aprotinin solution were added to each sample, homogenized and centrifuged at 3000 rpm for 5 minutes at 0° C. Plasma was separated and kept frozen at -80° C. until further analysis. Separation of Vtg by SDS-PAGE and subsequent “in-gel” digestion was performed following the procedure described in detail by […] et al. with minor modifications^65. Five microliters of thawed plasma from both experimental and control fish were mixed and loaded onto a 6% acrylamide gel and run for one hour at 180 V. The gel was stained using the colloidal Coomassie blue protocol. […]

plasma Vtg [2] = assay: Vtg induction with β-estradiol in Atlantic salmon, plasma signature peptide quantified by HPLC-QqToF-MS/MS; settings: experimental (E) Atlantic salmon, individual fish
Procedure: as §1, §2, §3, §4, §5

[3] = converted from SP assuming 1:1 molar ratio
[4] = one week after last of four weekly i.p. injections of 10 mg/kg, 10 mg/kg

C[C@]12CC[C@@H]3c4ccc(O)cc4CC[C@H]3[C@@H]1CC[C@@H]2O [β-estradiol]
Vtg Conc, After β-estradiol (plasma Vtg [1]): 0.351 µM and 0.487 µM and 0.343 µM and 0.278 µM and 0.375 µM and 0.471 µM and 0.120 µM and 0.225 µM and 0.113 µM and 0.344 µM and 0.460 µM | Vtg Conc, After β-estradiol (plasma Vtg [1]; [3]): 6.389 µg/mL and 8.867 µg/mL and 6.239 µg/mL and 5.059 µg/mL and 6.830 µg/mL and 8.562 µg/mL and 2.182 µg/mL and 4.091 µg/mL and 2.057 µg/mL and 6.264 µg/mL and 8.370 µg/mL | SP Conc, After β-estradiol (plasma Vtg [1]; [4]): 0.576 µg/mL and 0.799 µg/mL and 0.562 µg/mL and 0.456 µg/mL and 0.615 µg/mL and 0.771 µg/mL and 0.197 µg/mL and 0.368 µg/mL and 0.185 µg/mL and 0.564 µg/mL and 0.754 µg/mL | Vtg induction (SDS-PAGE band) (Vtg): strong induced band | Vtg Conc, After β-estradiol (plasma Vtg [2]): 0.383 µM and 0.591 µM and 0.268 µM and 0.399 µM and 0.330 µM | Vtg Conc, After β-estradiol (plasma Vtg [2]; [3]): 6.967 µg/mL and 10.758 µg/mL and 4.876 µg/mL and 7.254 µg/mL and 5.997 µg/mL | SP Conc, After β-estradiol (plasma Vtg [2]; [4]): 0.628 µg/mL and 0.969 µg/mL and 0.439 µg/mL and 0.653 µg/mL and 0.540 µg/mL
